Where a name gives a salt, the structure may show the parent alone. Read-outs that look alike come from different tables or passages of the source.
Experiments:
[1] = system: wild-type (TM4/8.2) strain of P. falciparum; assay: microbe, parasite or virus in culture; type: cell-based, Plasmodium falciparum; conditions: Plasmodium falciparum; wild-type strain TM4/8.2
Protocol: Mol. Biochem. Parasitol. […] Science, 1976, 193, 673-675]. In vitro antimalarial activity was determined by using [^3H]-hypoxanthine incorporation method [Desjardins, R. E.; Canfield, C. J.; Haynes, J. D.; Chulay, J. D. Quantitative assessment of antimalarial activity in vitro by a semiautomated microdilution technique. Antimicrob Agents Chemother. 1979, 16, 710-718]. The drugs were initially dissolved in DMSO and diluted with the culture media. Aliquots (25 μl) of drug solution of different concentrations was placed in 96-well plate together with 200 μl of 1.5% cell suspension of parasitized erythrocytes containing 1-2% parasitemia. Final concentration of DMSO was 0.1% where there was no effect on the parasite growth. The mixtures were incubated in a 3% CO2 incubator at 37° C. After 24 h of incubation, 25 μl (0.25 μCi) of [^3H]-hypoxanthine were added to each well. The mixtures were further incubated under the same condition for 18-24 h. DNA of parasites was harvested onto glass filter paper (Unifilter, Packard, USA). The filters were dried and liquid scintillation fluid was added for radioactivity measurement in a 6-probe liquid scintillation-counter (Packard, USA).

[2] = biological target: T1, A16V.S108T mutant (mut) of DHFR from Plasmodium falciparum (Plasmodium falciparum, UniProt A7UD81, A16V/S108T); assay: biochemical
T1 construct: The Dihydrofolate Reductase Domain of Plasmodium falciparum Thymidylate Synthase-Dihydrofolate Reductase; made in house
Protocol: (§1) For determination of the Ki values of a number of synthesized analogues, the assay reactions were initiated with affinity-purified enzyme (^˜0.005-0.01 U ml^−1), and the initial velocities in the presence of varying concentrations of inhibitors were analysed by non-linear least square fit using Kaleidagraph™ software.

[3] = system: A16V.S108T mutant (mut) of DHFR from Plasmodium falciparum; assay: biochemical; conditions: resistance factor
Protocol: as §1

[4] = biological target: T2, wild-type (wt) DHFR from Plasmodium falciparum (Plasmodium falciparum, UniProt P13922, N108S/R59C); assay: Inhibition of wild-type pfDHFR (spectrophotometric, Ki); type: biochemical;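 note: Affinity-purified enzyme, initial reaction rates measured across a range of inhibitor concentrations, Ki obtained by nonlinear least-squares fitting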
T2 construct: The Dihydrofolate Reductase Domain of Plasmodium falciparum Thymidylate Synthase-Dihydrofolate Reductase; made in house
Protocol: as §1

[5] = biological target: T3, DHFR-TS from Trypanosoma cruzi (Trypanosoma cruzi, UniProt Q27793); assay: Inhibition of T. cruzi DHFR-TS (I50-derived Ki);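 for all read-outs here: enzymes were recombinant T. cruzi DHFR-TS and human DHFR, both expressed in E. coli and purified on a methotrexate affinity column, with dihydrofolate and NADPH as substrates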; type: biochemical; conditions: for Selectivity: human Ki / T. cruzi Ki
T3 construct: pET 11c with the insertion of the complete ORF of the gene tc-dhfrts; made in house; host or cells: E. coli BL21 (DE3)
Protocol: DHFR activity was measured spectrophotometrically by monitoring the decrease in absorbance at 340 mm.
(§2) Inhibition of dihydrofolate reductases by 1,2-dihydro-1,3,5 triazines was analysed with T. cruzi and human DHFR.
(§3) DHFR assays contained 30 mM dihydrofolate, 0.1 mM NADPH, 50 mM TES buffer pH 7, 75 mM 2-mercaptoethanol and specified amounts of inhibitors. The reaction was initiated by addition of 2.8 or 2.3 units of T. cruzi and human, respectively, and monitored at 340 nm.
Selective inhibition of dihydrofolate reductase by 1,2-dihydro-1,3,5-triazines was analysed with T. cruzi and human DHFR. DHFR assays contained 30 μM dihydrofolate, 0.1 mM NADPH, 50 mM TES buffer pH 7, 75 mM β-mercaptoethanol and specified amounts of inhibitors. The reaction was initiated by addition of 2.8 or 2.3 units of T. cruzi and human enzyme, respectively, and monitored at 340 nm.
KiI 50=[I]0.5/((1+[S])/Km)

human DHFR [6] = biological target: T4, human DHFR (Homo sapiens, UniProt P00374); assay: Inhibition of human DHFR (I50-derived Ki); type: biochemical; conditions: human DHFR;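 note: recombinant human DHFR expressed in E. coli and purified by methotrexate affinity chromatography, enzyme activity followed spectrophotometrically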
T4 construct: made in house; host or cells: E. coli M15
T4 sequence (P00374 1-187): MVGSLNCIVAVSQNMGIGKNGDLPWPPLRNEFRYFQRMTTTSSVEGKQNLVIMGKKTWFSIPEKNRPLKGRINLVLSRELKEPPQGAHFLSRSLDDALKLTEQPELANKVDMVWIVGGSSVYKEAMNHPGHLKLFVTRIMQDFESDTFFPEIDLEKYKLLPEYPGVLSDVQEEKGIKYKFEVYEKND
Protocol: (§4) Folic acid and NADPH, were purchased from Sigma. Dihydrofolate was prepared from folic acid dithionate reduction. Methotrexate (MTX) was from Lederle Laboratories. MTX sepharose CL-6B was prepared according to the protocol described by Dann. et al. IPTG came from Boehringer Manheim. The expression system used for recombinant human DHFR production, which includes the plasmid PB-E1/RB SII, SphI-HDHFR expressed in E. coli M15, was supplied by Santi, D. V (Department of Biochemistry and Biophysics and Department of Pharmaceutical Chemistry, University of California). Recombinant T. Cruzi DHFR-TS was produced using the system pET 11c with the insertion of the complete ORF of the gene tc-dhfrts. The resulting plasmid was called pET DT.
(§5) Human and T.cruzi DHFR were produced using inducible expression systems. For human DHFR, fresh overnight cultures of E. coli M15, transformed with the plasmid, pB-E1/RB SII, SphI-HDHFR, were grown in LB and 0.1 mg/ml ampicillin medium at 28° C. For T.cruzi DHFR-TS, cultures of E. coli, BL21 (DE3) transformed with the plasmid pETDT system were grown at 37° C. The same purification protocol was used for both systems. When OD600 was at 0.8, cells pellets were collected by centrifugation, suspended in 50 ml of LB medium, containing 0.1 mg/ml of ampicillin. 10 ml of this preinocule was added to 2 litres of LB medium. Cultures were shaken at 28° C. or 37° C. (for human and T. cruzi DHFR respectively) and induction with IPTG ImM was performed when OD600 reached 0.8. After IPTG induction, cells were grown overnight in a shaker at 28° C. or 5 hours at 28° C. or 37° C. (for human and T. cruzi DHFR respectively) and then harvested by centrifugation.
(§6) Cell pellets were suspended in sonication buffer (2× TES DHFR:TES 100 mM, 2-mercaptoethanol 150 mM, EDTA 2 mM pH=7) containing protease inhibitors.
(§7) Crude extract was circulated through the MTX-Sepharose column at 4° C. at a flow rate of 0.2 ml/min until the protein was bound to the resin. The column was washed with an excess of buffer B (KH2PO410 mM pH 7, KC1 1M). Protein was eluted at 0.2 min/ml with an elution buffer (100 mM TES, 10 mM DTT, 2 mM EDTA, DHF 8.5 mM), the elution profile was collected in 1 ml fractions using a Pharmacia LKB Frac 200 collector. Finally, the protein was desalted using molecular size exclusion chromatography in a Pharmacia G-25 column. Fractions containing DHFR activity were pooled and concentrated by ultrafiltration using centripreps Amicon.
(§8) The purity of the protein preparation was assessed by detection of a single band of the correct molecular weight stained with coomasie blue following a 12% SDS-PAGE. Protein concentration was determined by the method of Bradford using a BSA as a standard. DHFR activity was measured spectrophotometrically by monitoring the decrease in absorbance at 340 mm. […] One unit of enzyme, is defined as the amount of enzyme which produces 1 nmol of product per min using ε of 12300M^−1 at 340 nm.
as §2, §3
(§9) Selective inhibition of dihydrofolate reductase by 1,2-dihydro-1,3,5-triazines was analysed with T. cruzi and human DHFR. DHFR assays contained 30 μM dihydrofolate, 0.1 mM NADPH, 50 mM TES buffer pH 7, 75 mM β-mercaptoethanol and specified amounts of inhibitors. The reaction was initiated by addition of 2.8 or 2.3 units of T. cruzi and human enzyme, respectively, and monitored at 340 nm. […] KiI 50=[I]0.5/((1+[S])/Km)

human DHFR [7] = assay: Inhibition of human DHFR (I50-derived Ki); type: biochemical;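 note: recombinant human DHFR expressed in E. coli and purified by methotrexate affinity chromatography, enzyme activity followed spectrophotometrically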
Protocol: as §4, §5, §6, §7, §8, §2, §3, §9

T2 sequence (P13922 10-228 R59C/N108S): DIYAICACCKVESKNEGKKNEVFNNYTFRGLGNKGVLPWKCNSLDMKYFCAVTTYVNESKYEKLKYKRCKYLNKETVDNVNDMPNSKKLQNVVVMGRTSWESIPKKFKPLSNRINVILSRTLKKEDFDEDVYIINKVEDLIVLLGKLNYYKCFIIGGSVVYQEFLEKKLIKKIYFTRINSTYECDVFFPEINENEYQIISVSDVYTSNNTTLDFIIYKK
T1 sequence (A7UD81 1-231 A16V/S108T): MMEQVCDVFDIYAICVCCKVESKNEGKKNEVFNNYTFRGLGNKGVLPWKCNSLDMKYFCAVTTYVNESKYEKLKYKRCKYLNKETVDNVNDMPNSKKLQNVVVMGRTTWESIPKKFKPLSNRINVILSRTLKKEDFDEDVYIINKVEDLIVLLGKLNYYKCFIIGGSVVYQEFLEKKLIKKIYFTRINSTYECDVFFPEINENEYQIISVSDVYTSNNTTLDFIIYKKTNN
T3 sequence (Q27793 whole entry): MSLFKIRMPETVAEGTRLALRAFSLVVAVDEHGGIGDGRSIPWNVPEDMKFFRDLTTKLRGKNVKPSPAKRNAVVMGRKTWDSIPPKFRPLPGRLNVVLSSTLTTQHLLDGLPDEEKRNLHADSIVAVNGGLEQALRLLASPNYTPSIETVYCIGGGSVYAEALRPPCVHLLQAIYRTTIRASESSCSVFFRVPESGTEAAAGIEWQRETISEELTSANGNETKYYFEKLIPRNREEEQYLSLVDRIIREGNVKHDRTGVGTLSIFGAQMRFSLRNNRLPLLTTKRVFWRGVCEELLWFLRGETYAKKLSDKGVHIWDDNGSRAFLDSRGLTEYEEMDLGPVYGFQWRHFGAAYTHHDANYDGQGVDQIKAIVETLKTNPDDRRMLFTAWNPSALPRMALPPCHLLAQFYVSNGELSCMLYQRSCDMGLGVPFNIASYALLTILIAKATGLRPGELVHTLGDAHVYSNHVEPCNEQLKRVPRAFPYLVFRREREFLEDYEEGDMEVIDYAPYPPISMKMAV

Compound	IC50 [1]	Ki [2]	Ki(mut)/Ki(wt) [3]	Ki ([4]; Ki(wt) nM)	Ki [5]	Selectivity [5]	Ki (human DHFR [6]; Human Ki (I50)(nM))	Ki (human)/Ki (P. falc. mut) (human DHFR [7])	Ki (human)/Ki (P. falc. wt) (human DHFR [7])	Ki (human)/Ki (T. cruzi) (human DHFR [7])	Ki (human DHFR [6]; read-out: Human Ki (I50))	Ki ([5]; T. cruzi DHFR-TS, read-out: T. cruzi Ki (I50))	Ki ([4]; read-out: Ki(wt))
COc1cc(C2N=C(N)N=C(N)N2c2cccc(Cl)c2)cc(OC)c1OC (stereo not shown) [(Ib) R2=3,4,5-trimethoxyphenyl]	> 50000 nM	1010 ± 27 nM	1.0	960 ± 79 nM									
NC1=NC(c2ccc(O)cc2)N(c2ccc(Cl)cc2)C(N)=N1 (stereo not shown) [(Ia) R2=p-hydroxyphenyl]		98 ± 10 nM	8.6	11.3 ± 1.7 nM									
NC1=NC(c2ccccc2)N(c2ccc(Cl)c(Cl)c2)C(N)=N1 (stereo not shown) [(Ic) R2=Ph, 1-(3′,4′-Dichlorophenyl)-2-phenyl-4,6-diamino-1,2-dihydro-1,3,5-triazine hydrochloride]	26 nM												
NC1=NC(c2cccc(OCc3ccccc3)c2)N(c2cccc(OCc3ccccc3)c2)C(N)=N1 (stereo not shown) [R2=3-BnOC6H4, X=H, Y=BnO, 1-m-benzyloxyphenyl-2-m-benzyloxyphenyl-4,6-diamino-1,2-dihydro-1,3,5-triazine]		7.2 ± 1 nM	1.7	4.3 ± 0.2 nM	128 nM	16.6	2130 nM						
NC1=NC(c2cccc(OCc3ccccc3)c2)N(c2cccc(Cc3ccccc3)c2)C(N)=N1 (stereo not shown) [R2=3-BnOC6H4, X=H, Y=Bn, 1-m-benzylphenyl-2-m-benzyloxyphenyl-4,6-diamino-1,2-dihydro-1,3,5-triazine]		7.4 ± 0.9 nM	3.2	2.3 ± 0.3 nM	32 nM	9.1	292 nM	39	127	9.1			
NC1=NC(c2ccc(Br)cc2)N(c2cccc(Cl)c2)C(N)=N1 (stereo not shown) [(Ib) R2=4-bromophenyl]	9100 nM	21.9 ± 2.5 nM	0.8	27 ± 4.5 nM									
COc1cc(OC)cc(C2N=C(N)N=C(N)N2c2ccc(Cl)cc2)c1 (stereo not shown) [(Ia) R2=3,5-dimethoxyphenyl]	3250 nM	100 ± 7 nM	2.6	38.3 ± 8 nM	200 nM	129	25800 nM						
NC1=NCN(c2ccc(Cl)c(Cl)c2)C(N)=N1 [(Ic) R2=H]	123 nM	43.6 ± 5.8 nM	8.2	5.3 ± 0.7 nM	36 nM	1.9				0.19			
NC1=NC(c2cccc(O)c2)N(c2cccc(Cl)c2)C(N)=N1 (stereo not shown) [(Ib) R2=3-hydroxyphenyl]	551 nM	19.7 ± 2.4 nM	0.7	27.9 ± 4.5 nM									
Cl.NC1=NC(c2ccccc2)N(c2cccc(Cl)c2)C(N)=N1 (stereo not shown) [(Ib) R2=phenyl, 1-(3′-Chlorophenyl)-2-phenyl-4,6-diamino-1,2-dihydro-1,3,5-triazine hydrochloride]	565 nM	10 ± 7 nM	0.9	11.7 ± 2.5 nM									
COc1ccc(C2N=C(N)N=C(N)N2c2ccc(Cl)cc2)cc1OC (stereo not shown) [(Ia) R2=3,4-dimethoxyphenyl]	2270 nM	124 ± 5 nM	3.8	32.7 ± 2 nM	386 nM	67	25700 nM						
NC1=NC(c2cccc(Oc3ccccc3)c2)N(c2ccc(Cl)c(Cl)c2)C(N)=N1 (stereo not shown) [(Ic) R2=3-phenoxyphenyl]	330 nM	5.2 ± 0.6 nM	2.7	1.9 ± 0.3 nM									
NC1=NC(c2ccccc2)N(c2ccc(Cl)cc2)C(N)=N1 (stereo not shown) [(Ia) R2=phenyl, 1-(4′-Chlorophenyl)-2-phenyl-4,6-diamino-1,2-dihydro-1,3,5-triazine hydrochloride]	27 nM	49.3 ± 3.3 nM			42 nM						3870 nM		
COc1cccc(C2N=C(N)N=C(N)N2c2cccc(Cl)c2)c1 (stereo not shown) [(Ib) R2=3-methoxyphenyl]	4370 nM	59.1 ± 6.3 nM	10.9	5.4 ± 0.2 nM	240 nM	5.3	1270 nM						
Cl.NC1=NCN(c2ccccc2)C(N)=N1 [R=H, X=H, 1-(phenyl)-4,6-diamino-1,2-dihydro-1,3,5-triazine hydrochloride]		585 ± 70 nM	1.8	329 ± 27 nM				2.44	4.35		1430 nM		
COc1ccc(C2N=C(N)N=C(N)N2c2ccc(F)cc2)cc1 (stereo not shown) [R2=4-MeOC6H4, X=F, Y=H]					61 nM	441	26900 nM			441			

Compound	IC50 [1]	Ki [2]	Ki(mut)/Ki(wt) [3]	Ki ([4]; Ki(wt) nM)	Ki [5]	Selectivity [5]	Ki (human DHFR [6]; Human Ki (I50)(nM))	Ki (human)/Ki (P. falc. mut) (human DHFR [7])	Ki (human)/Ki (P. falc. wt) (human DHFR [7])	Ki (human)/Ki (T. cruzi) (human DHFR [7])	Ki (human DHFR [6]; read-out: Human Ki (I50))	Ki ([5]; T. cruzi DHFR-TS, read-out: T. cruzi Ki (I50))	Ki ([4]; read-out: Ki(wt))
N#Cc1ccc(C2N=C(N)N=C(N)N2c2ccc(Cl)cc2)cc1 (stereo not shown) [(Ia) R2=p-cyanophenyl]	804 nM	205 ± 22 nM		11.3 ± 1.4 nM	650 nM								
NC1=NC(c2cccc(Oc3ccccc3)c2)N(c2cccc(-c3ccccc3)c2)C(N)=N1 (stereo not shown) [1-m-biphenyl-2-m-phenoxyphenyl-4,6-diamino-1,2-dihydro-1,3,5-triazine]		4.8 ± 0.9 nM	2.2	2 nM									
COc1ccc(C2N=C(N)N=C(N)N2c2cccc(Cl)c2)cc1 (stereo not shown) [(Ib) R2=4-methoxyphenyl]	2560 nM	12.5 ± 0.9 nM	0.6	21.8 ± 1 nM									
COc1ccc(C2N=C(N)N=C(N)N2c2cccc(Cl)c2)cc1OC (stereo not shown) [(Ib) R2=3,4-dimethoxyphenyl]	6820 nM	164 ± 6 nM	6.0	27.2 ± 2 nM									
COc1cccc(C2N=C(N)N=C(N)N2c2ccc(Cl)cc2)c1 (stereo not shown) [(Ia) R2=m-methoxyphenyl]	577 nM	62.8 ± 2.4 nM	6.0	10.4 ± 1.4 nM									
COc1ccc(Oc2cccc(C3N=C(N)N=C(N)N3c3ccc(Cl)c(Cl)c3)c2)cc1 (stereo not shown) [(Ic) R2=3-(4-methoxyphenoxy)phenyl]	2930 nM	7.4 ± 0.8 nM	3.9	1.9 ± 0.3 nM									
COc1cc(OC)cc(C2N=C(N)N=C(N)N2c2cccc(Cl)c2)c1 (stereo not shown) [(Ib) R2=3,5-dimethoxyphenyl]	> 50000 nM	30.9 ± 3 nM	0.4	79.4 ± 7 nM									
NC1=NC(c2ccc(OCc3cc(F)cc(F)c3)cc2)N(c2cccc(Cl)c2)C(N)=N1 (stereo not shown) [(Ib) R2=4-(3,5-difluorobenzyloxy)phenyl]	3780 nM	7.4 ± 0.7 nM	1.7	4.4 ± 0.4 nM									
NC1=NC(c2ccc(O)cc2)N(c2cccc(Cl)c2)C(N)=N1 (stereo not shown) [(Ib) R2=4-hydroxyphenyl]	3070 nM	57.7 ± 7.5 nM	1.0	59.1 ± 1 nM			56 nM	0.97	0.95	1.17			
CCCOc1ccc(C2N=C(N)N=C(N)N2c2cccc(Cl)c2)cc1 (stereo not shown) [(Ib) R2=4-(n-propyloxy)phenyl]	248 nM	9.3 ± 0.6 nM											
NC1=NC(c2cccc(Oc3ccc(Cl)cc3)c2)N(c2ccc(Cl)cc2)C(N)=N1 (stereo not shown) [(Ia) R2=3-(4-chlorophenoxy)phenyl]	2850 nM	7.5 nM	5.3	1.4 ± 0.3 nM									
NC1=NC(c2cccc(Oc3cc(Cl)cc(Cl)c3)c2)N(c2cccc(Cl)c2)C(N)=N1 (stereo not shown) [(Ib) R2=3-(3,5-dichlorophenoxy)phenyl]	5470 nM	4.7 ± 0.4 nM	2.6	1.8 ± 0.6 nM									
NC1=NCN(c2ccc(Br)cc2)C(N)=N1 [R2=H, X=Br, Y=H]					100 nM	4.8	480 nM						
NC1=NC(c2cccc(O)c2)N(c2ccc(Cl)cc2)C(N)=N1 (stereo not shown) [(Ia) R2=m-hydroxyphenyl, 1-p-chlorophenyl-2-m-hydroxyphenyl-4,6-diamino-1,2-dihydro-1,3,5-triazine]	48 nM	123 ± 13 nM	20.6	6 ± 0.4 nM			1680 nM	13.7	280	56			
CC1(C)N=C(N)N=C(N)N1c1ccc(Cl)cc1 [cycloguanil, Cycloguanil, reference compound]	40 nM	1310 nM										370 nM	1.5 nM

— patent US20030203908A1, “Dihydrofolate reductase inhibitors” (priority 2000, published 2003)
